Where “and” joins values, the source holds several entries; their conditions need not be identical. Identical values can stand only once. Toxic doses and inconclusive results are not listed. Rule as the data show it: active = T/C of 150% or more; inactive = T/C below 125%.
Test system: L1210 leukemia ip in BDF1 mice, survival T/C
Assay: NCI In Vivo Anticancer Drug Screen. Data for tumor model L1210 Leukemia (intraperitoneal) in B6D2F1 (BDF1) mice
Settings: endpoint: mean survival time, higher = longer survival
Outline: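 Survival endpoint. Drug-treated group vs vehicle group, expressed as T divided by C. Tumor passaged by transplantation.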

[1] = dose: 50.0 mg/kg/injection, schedule: Q01DX009 (ip), vehicle: Klucel (hydroxypropylcellulose) (HPC)
[2] = dose: 100.0 mg/kg/injection, schedule: Q01DX009 (ip), vehicle: Klucel (hydroxypropylcellulose) (HPC)
[3] = dose: 100.0 mg/kg/injection, schedule: Q04DX002 (ip), vehicle: Klucel (hydroxypropylcellulose) (HPC)
[4] = dose: 200.0 mg/kg/injection, schedule: Q04DX002 (ip), vehicle: Klucel (hydroxypropylcellulose) (HPC)
[5] = dose: 400.0 mg/kg/injection, schedule: Q04DX002 (ip), vehicle: Klucel (hydroxypropylcellulose) (HPC)
[6] = dose: 100.0 mg/kg/injection, schedule: Q01DX001 (ip), vehicle: carboxymethylcellulose (CMC)
[7] = dose: 200.0 mg/kg/injection, schedule: Q01DX001 (ip), vehicle: carboxymethylcellulose (CMC)
[8] = dose: 400.0 mg/kg/injection, schedule: Q01DX001 (ip), vehicle: carboxymethylcellulose (CMC)
[9] = dose: 200.0 mg/kg/injection, schedule: Q01DX009 (ip), vehicle: Klucel (hydroxypropylcellulose) (HPC)
[10] = dose: 50.0 mg/kg/injection, schedule: Q01DX009 (ip), vehicle: saline with Tween-80
[11] = dose: 100.0 mg/kg/injection, schedule: Q01DX009 (ip), vehicle: saline with Tween-80
[12] = dose: 100.0 mg/kg/injection, schedule: Q04DX003 (ip), vehicle: saline with Tween-80
[13] = dose: 200.0 mg/kg/injection, schedule: Q01DX009 (ip), vehicle: saline with Tween-80
[14] = dose: 200.0 mg/kg/injection, schedule: Q04DX003 (ip), vehicle: saline with Tween-80
[15] = dose: 400.0 mg/kg/injection, schedule: Q01DX009 (ip), vehicle: saline with Tween-80
[16] = dose: 400.0 mg/kg/injection, schedule: Q04DX003 (ip), vehicle: saline with Tween-80

Measured: T/C

NC(=Nc1ccccc1)SCc1ccc([N+](=O)[O-])cc1
inactive: [1] 108 % of control | dose: 100.0 mg/kg/injection, schedule: Q01DX005 (ip), vehicle: Klucel (hydroxypropylcellulose) (HPC) 97 % of control | [2] 104 % of control | [3] 104 % of control | dose: 200.0 mg/kg/injection, schedule: Q01DX005 (ip), vehicle: Klucel (hydroxypropylcellulose) (HPC) 92 % of control | [4] 112 % of control | [5] 89 % of control

O=C(CCN1CCC(c2ccccc2)CC1)c1ccc(F)cc1
inactive: [6] 106 % of control | [7] 93 % of control

O=C1c2cc(F)ccc2-c2cccc(F)c21
inactive: dose: 50.0 mg/kg/injection, schedule: Q01DX001 (ip), vehicle: carboxymethylcellulose (CMC) 102 % of control | [6] 108 % of control | [7] 104 % of control | [8] 98 % of control

Cc1cc2c(cc1C)N(C(=O)CN1CCCCC1)CC(=O)N2
inactive: dose: 75.0 mg/kg/injection, schedule: Q01DX001 (ip), vehicle: saline 93 % of control | dose: 150.0 mg/kg/injection, schedule: Q01DX001 (ip), vehicle: saline 91 % of control | dose: 300.0 mg/kg/injection, schedule: Q01DX001 (ip), vehicle: saline 93 % of control

CCOC(=O)C(Nc1cccc2ccccc12)C(=O)OCC
inactive: [3] 105 % of control | [4] 103 % of control | [5] 100 % of control

C/C(=N/NC(N)=O)C1CC2CCC1CC2 (centres undefined)
inactive: [1] 102 % of control | [2] 93 % of control | [9] 89 % of control

CC1(C)CCCC2(C)C3CCC(C31)C2OC(=O)c1ccc([N+](=O)[O-])cc1 (centres undefined)
inactive: dose: 100.0 mg/kg/injection, schedule: Q01DX001 (ip), vehicle: Klucel (hydroxypropylcellulose) (HPC) 101 % of control | dose: 200.0 mg/kg/injection, schedule: Q01DX001 (ip), vehicle: Klucel (hydroxypropylcellulose) (HPC) 98 % of control | dose: 400.0 mg/kg/injection, schedule: Q01DX001 (ip), vehicle: Klucel (hydroxypropylcellulose) (HPC) 93 % of control

COc1cc(C=Nc2cccc(C(F)(F)F)c2)ccc1OC(=O)c1ccccc1
inactive: [2] 86 % of control | [9] 94 % of control | dose: 400.0 mg/kg/injection, schedule: Q01DX009 (ip), vehicle: Klucel (hydroxypropylcellulose) (HPC) 91 % of control

O=C(NC1(C(=O)O)CCCC1)C(F)(F)F
inactive: dose: 100.0 mg/kg/injection, schedule: Q04DX003 (ip), vehicle: saline 98 % of control | dose: 200.0 mg/kg/injection, schedule: Q04DX003 (ip), vehicle: saline 118 % of control | dose: 400.0 mg/kg/injection, schedule: Q04DX003 (ip), vehicle: saline 111 % of control

CC(C)NC(=O)Nc1cccc(Cl)c1
inactive: dose: 100.0 mg/kg/injection, schedule: Q04DX003 (ip), vehicle: gum acacia 96 % of control | dose: 200.0 mg/kg/injection, schedule: Q04DX003 (ip), vehicle: gum acacia 94 % of control | dose: 400.0 mg/kg/injection, schedule: Q04DX003 (ip), vehicle: gum acacia 100 % of control

COc1ccccc1CC(C)N (centres undefined)
inactive: dose: 5.0 mg/kg/injection, schedule: Q01DX001 (ip), vehicle: saline 100 % of control | dose: 10.0 mg/kg/injection, schedule: Q01DX001 (ip), vehicle: saline 102 % of control | dose: 20.0 mg/kg/injection, schedule: Q01DX001 (ip), vehicle: saline 102 % of control | dose: 20.0 mg/kg/injection, schedule: Q01DX009 (ip), vehicle: saline 106 % of control | dose: 40.0 mg/kg/injection, schedule: Q01DX001 (ip), vehicle: saline 96 % of control | dose: 40.0 mg/kg/injection, schedule: Q01DX009 (ip), vehicle: saline 97 % of control | dose: 80.0 mg/kg/injection, schedule: Q01DX009 (ip), vehicle: saline 111 % of control | dose: 100.0 mg/kg/injection, schedule: Q01DX001 (ip), vehicle: saline 103 % of control

CN(C)N=Nc1ccc(C(F)(F)F)cc1
inactive: dose: 50.0 mg/kg/injection, schedule: Q01DX001 (ip), vehicle: saline with Tween-80 97 % of control | [10] 94 % of control | dose: 50.0 mg/kg/injection, schedule: Q04DX003 (ip), vehicle: saline with Tween-80 98 % of control | dose: 100.0 mg/kg/injection, schedule: Q01DX001 (ip), vehicle: saline with Tween-80 103 % of control | [11] 94 % of control | [12] 98 % of control | dose: 200.0 mg/kg/injection, schedule: Q01DX001 (ip), vehicle: saline with Tween-80 105 % of control | [13] 97 % of control | [14] 101 % of control | dose: 400.0 mg/kg/injection, schedule: Q01DX001 (ip), vehicle: saline with Tween-80 101 % of control | [15] 98 % of control | [16] 98 % of control

O=C(O)COc1c(Cl)cc(Cl)c2cccnc12
inactive: [6] 93 % of control | [7] 101 % of control

O=C(CBr)c1ccc2cc(Br)c3ccccc3c2c1
inactive: dose: 55.0 mg/kg/injection, schedule: Q01DX Z (ip), vehicle: methylcellulose (MC) 90 % of control | dose: 83.0 mg/kg/injection, schedule: Q01DX Z (ip), vehicle: methylcellulose (MC) 94 % of control | dose: 125.0 mg/kg/injection, schedule: Q01DX Z (ip), vehicle: methylcellulose (MC) 102 % of control

Cc1ccc(NS(=O)(=O)c2ccc(Br)cc2)c(C)c1
inactive: dose: 25.0 mg/kg/injection, schedule: Q01DX009 (ip), vehicle: saline with Tween-80 98 % of control | [10] 96 % of control | [11] 96 % of control | [12] 98 % of control | [13] 98 % of control | [14] 91 % of control | [15] 101 % of control | [16] 93 % of control

CN(C)c1ccc2c(c1)C(=NO)c1cc(N(C)C)ccc1-2
inactive: dose: 100.0 mg/kg/injection, schedule: Q04DX003 (ip), vehicle: Klucel (hydroxypropylcellulose) (HPC) 104 % of control | dose: 200.0 mg/kg/injection, schedule: Q04DX003 (ip), vehicle: Klucel (hydroxypropylcellulose) (HPC) 96 % of control | dose: 400.0 mg/kg/injection, schedule: Q04DX003 (ip), vehicle: Klucel (hydroxypropylcellulose) (HPC) 91 % of control

CC(=O)[O][Sn]([c]1ccccc1)([c]1ccccc1)[c]1ccccc1
inactive: dose: 0.39 mg/kg/injection, schedule: Q01DX009 (ip), vehicle: saline with Tween-80 98 % of control | dose: 0.78 mg/kg/injection, schedule: Q01DX009 (ip), vehicle: saline with Tween-80 93 % of control | dose: 1.0 mg/kg/injection, schedule: Q01DX015 (ip), vehicle: saline 97 % of control | dose: 1.56 mg/kg/injection, schedule: Q01DX009 (ip), vehicle: saline with Tween-80 106 % of control | dose: 1.56 mg/kg/injection, schedule: Q04DX003 (ip), vehicle: saline 106 % of control | dose: 2.0 mg/kg/injection, schedule: Q01DX015 (ip), vehicle: saline 89 % of control | dose: 2.33 mg/kg/injection, schedule: Q01DX009 (ip), vehicle: saline with Tween-80 105 % of control | dose: 3.54 mg/kg/injection, schedule: Q01DX009 (ip), vehicle: saline with Tween-80 100 % of control

O=[N+]([O-])c1ccc(/C=C\c2ccncc2)cc1
inactive: [6] 101 % of control | dose: 100.0 mg/kg/injection, schedule: Q01DX009 (ip), vehicle: carboxymethylcellulose (CMC) 100 % of control | dose: 100.0 mg/kg/injection, schedule: Q04DX002 (ip), vehicle: carboxymethylcellulose (CMC) 103 % of control and 108 % of control | dose: 100.0 mg/kg/injection, schedule: Q04DX003 (ip), vehicle: carboxymethylcellulose (CMC) 100 % of control | [7] 105 % of control | dose: 200.0 mg/kg/injection, schedule: Q01DX009 (ip), vehicle: carboxymethylcellulose (CMC) 98 % of control | dose: 200.0 mg/kg/injection, schedule: Q04DX002 (ip), vehicle: carboxymethylcellulose (CMC) 100 % of control | dose: 200.0 mg/kg/injection, schedule: Q04DX003 (ip), vehicle: carboxymethylcellulose (CMC) 115 % of control | [8] 95 % of control | dose: 400.0 mg/kg/injection, schedule: Q04DX002 (ip), vehicle: carboxymethylcellulose (CMC) 100 % of control | dose: 400.0 mg/kg/injection, schedule: Q04DX003 (ip), vehicle: carboxymethylcellulose (CMC) 104 % of control

Source: PubChem BioAssay AID248 (DTP/NCI, 2004)
